Test results: PMC9230573 (Frontiers in Pharmacology, 2022)
Several values for one entry are separate records, joined by “and”; a condition that tells them apart may be missing. Identical values can stand only once. Entries after “also recorded” stand apart in the source; their conditions may differ. Where a SMILES comes first, the peptide text is derived from it. Bridges are numbered along the chain shown (N, C = ends).

Key:
[1] = tested on: GABABR-coupled Cav2.2 channels (human GABAB receptor R1 + R2 subunits and Cav2.2); assay type: cell-based; settings: SEM
rat α3β2 nAChR = rat α3β2 nAChR (Rattus norvegicus, UniProt P04757+P12390); assay: cell-based
rat PNL pain model = settings: in vivo
[2] = tested on: L-type (Cav1.2) calcium channels; assay type: cell-based
[3] = tested on: T-type (Cav3.2) calcium channels; assay type: cell-based
rat CCI pain model = settings: in vivo
[4] = tested on: voltage-gated sodium channels in DRG neurons; assay type: cell-based, rat
[5] = tested on: voltage-gated potassium channels in DRG neurons; assay type: cell-based, rat
locomotor activity = settings: rat, in vivo

Chain of rat α3β2 nAChR (P04757 26-499 limits assumed): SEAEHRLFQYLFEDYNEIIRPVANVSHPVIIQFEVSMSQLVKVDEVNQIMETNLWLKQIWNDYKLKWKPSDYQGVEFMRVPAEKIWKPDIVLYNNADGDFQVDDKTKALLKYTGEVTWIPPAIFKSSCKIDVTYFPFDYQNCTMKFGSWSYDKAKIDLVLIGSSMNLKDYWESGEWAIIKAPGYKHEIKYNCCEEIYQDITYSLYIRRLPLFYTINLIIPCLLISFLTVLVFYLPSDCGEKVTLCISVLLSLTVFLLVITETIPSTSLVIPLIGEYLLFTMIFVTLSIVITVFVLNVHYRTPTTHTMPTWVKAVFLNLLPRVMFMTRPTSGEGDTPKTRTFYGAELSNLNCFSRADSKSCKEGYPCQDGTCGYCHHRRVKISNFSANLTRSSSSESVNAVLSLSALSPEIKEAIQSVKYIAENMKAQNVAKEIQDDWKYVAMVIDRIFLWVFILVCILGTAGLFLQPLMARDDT
Chain of rat α3β2 nAChR (P12390 25-500 limits assumed): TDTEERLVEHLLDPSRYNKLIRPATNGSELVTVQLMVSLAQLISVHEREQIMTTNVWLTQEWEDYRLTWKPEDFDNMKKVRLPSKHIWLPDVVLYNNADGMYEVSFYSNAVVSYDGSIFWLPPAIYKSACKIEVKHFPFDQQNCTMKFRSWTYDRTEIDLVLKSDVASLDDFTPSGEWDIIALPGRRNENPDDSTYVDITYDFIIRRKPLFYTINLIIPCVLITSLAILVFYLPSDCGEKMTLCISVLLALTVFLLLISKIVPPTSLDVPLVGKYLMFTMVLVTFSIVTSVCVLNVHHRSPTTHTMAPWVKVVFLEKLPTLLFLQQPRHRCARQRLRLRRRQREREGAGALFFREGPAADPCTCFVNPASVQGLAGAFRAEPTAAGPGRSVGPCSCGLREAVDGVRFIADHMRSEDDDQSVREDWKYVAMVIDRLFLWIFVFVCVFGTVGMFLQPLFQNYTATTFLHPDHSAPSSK

Compound | percent inhibition of IBa at GABABR-coupled Cav2.2 channels [1] [%] | Hillslope (rat α3β2 nAChR) | IC50 (rat α3β2 nAChR) [µM] | elevation value of the pain threshold (rat PNL pain model) [g] | pain threshold (rat PNL pain model) | inhibition of L-type calcium channels (in words) [2] | inhibition of T-type calcium channels (in words) [3] | increase in pain threshold (rat CCI pain model) | pain threshold elevation percentage (rat CCI pain model) | inhibition of voltage-gated sodium channels (in words) [4] | inhibition of voltage-gated potassium channels (in words) [5] | effect on locomotor activity (in words) (locomotor activity) | increased mechanical pressure threshold (elevation value of pain threshold) (rat PNL pain model) [g]
CC[C@H](C)[C@@H]1NC(=O)[C@@H]2CCCN2C(=O)[C@@H]2CSSC[C@H](NC(=O)[C@@H](N)CC(N)=O)C(=O)N[C@@H](CSSC[C@@H](C(N)=O)NC(=O)[C@H](CC(N)=O)NC(=O)[C@H](Cc3ccccc3)NC(=O)[C@H](CCCNC(=N)N)NC(=O)[C@H](CO)NC(=O)[C@H](Cc3ccc(O)cc3)NC(=O)[C@H](CC(=O)O)NC1=O)C(=O)N[C@@H](CCSC)C(=O)N[C@@H](Cc1ccccc1)C(=O)N[C@@H](Cc1c[nH]cn1)C(=O)N[C@@H]([C@@H](C)O)C(=O)N2 [Vt1.27] (H-NCCMFHTCPIDYSRFNC-NH2; disulfide 2-8, 3-17) | 19 ± 2 | -0.484 | 1.16 | 37.6 | 126.2 ± 9.16 g and 138.8 ± 23.6 g and 165.0 ± 21.4 g | did not significantly inhibit | did not significantly inhibit | 67.2 g and 40.0 g | 56.4 ± 14.9% and 33.3 ± 15.3% | inactive; also recorded: did not significantly inhibit | inactive; also recorded: did not significantly inhibit | did not affect locomotor activity | 
Vc1.1 [reference compound] |  |  |  | 7.4 |  |  |  |  | 44.3 ± 9.1% and 26.1 ± 10.0% |  |  |  | 71.2
